Where “and” joins values, the source holds several entries; their conditions need not be identical. Identical values can stand only once.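 How tested: cells in 96-well plates exposed to compound for 48 hours at five concentrations. GI50 = concentration required for 50% inhibition of growth. TGI is the concentration that stops growth completely.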
Key:
Test in all cases: DTP human tumour cell line panel, 48 h
786-0 renal = system: 786-0 renal
ACHN renal = system: ACHN renal
OVCAR-3 ovarian = system: OVCAR-3 ovarian
SNB-19 CNS = system: SNB-19 CNS
RPMI-8226 leukemia = system: RPMI-8226 leukemia
SF-268 CNS = system: SF-268 CNS
SK-MEL-2 melanoma = system: SK-MEL-2 melanoma
OVCAR-8 ovarian = system: OVCAR-8 ovarian
HOP-62 NSCLC = system: HOP-62 NSCLC
LOX IMVI melanoma = system: LOX IMVI melanoma

Structure (SMILES)	TGI (786-0 renal)	TGI (ACHN renal) [µM]	TGI (OVCAR-3 ovarian)	TGI (SNB-19 CNS)	TGI (RPMI-8226 leukemia)	TGI (SF-268 CNS)	TGI (SK-MEL-2 melanoma) [µM]	TGI (OVCAR-8 ovarian)	TGI (HOP-62 NSCLC)	TGI (LOX IMVI melanoma) [µM]	GI50 (786-0 renal) [µM]	GI50 (ACHN renal) [µM]	GI50 (OVCAR-3 ovarian) [µM]	GI50 (SNB-19 CNS) [µM]	GI50 (RPMI-8226 leukemia)	GI50 (HOP-62 NSCLC) [µM]	GI50 (SF-268 CNS) [µM]	GI50 (LOX IMVI melanoma) [µM]	GI50 (OVCAR-8 ovarian) [µM]
NCCCOCC(=O)O	> 100 µM	> 100	> 100 µM	> 100 µM	> 100 µM	> 100 µM	> 100	> 100 µM											
CC1CC#CCOC(=O)CCCC1=O (stereo unspecified)	> 100 µM		> 100 µM	> 100 µM	> 100 µM	> 100 µM		> 100 µM	> 100 µM	> 100									
Oc1cc(O)c(Oc2cccc(O)c2O)c(O)c1	> 100 µM	> 100	> 100 µM	> 100 µM	> 100 µM	> 100 µM	> 100	> 100 µM	> 100 µM										
OCCCOC(c1ccccc1)(c1ccccc1)c1ccccc1	> 100 µM	> 100	> 100 µM		> 100 µM	> 100 µM		> 100 µM	> 100 µM	> 100									
C1C[OH+]CC[OH+]CCNCC[OH+]CC[OH+]CCN1.[Cl-].[Pt+4]	> 100 µM	> 100	> 100 µM	> 100 µM	> 100 µM	> 100 µM		> 100 µM	> 100 µM	> 100	> 100	> 100	> 100	> 100	> 100 µM	> 100	> 100	> 100	> 100
COC[C@@H](N=CN1CCc2cc(OC)c(OC)cc2[C@@H]1C)C(C)(C)C	> 100 µM	> 100	> 100 µM	> 100 µM	> 100 µM	> 100 µM	> 100	> 100 µM	> 100 µM										
COc1ccc(NC(=O)C(=O)Cc2nc3ccc([N+](=O)[O-])cc3[nH]c2=O)c(OC)c1	> 100 µM	> 100	> 100 µM	> 100 µM			> 100			> 100									
CC(=O)Nc1ccc(C(=O)NN2C(=O)C(Cl)C2c2ccc([N+](=O)[O-])cc2)cc1 (stereo unspecified)	> 100 µM	> 100	> 100 µM	> 100 µM		> 100 µM	> 100	> 100 µM	> 100 µM	> 100									
O=C(c1ccccc1)C1CCCCN1C(=O)c1ccccc1 (stereo unspecified)	> 100 µM	> 100	> 100 µM	> 100 µM	> 100 µM	> 100 µM	> 100	> 100 µM	> 100 µM										
CC12N=NN(c3ccc([N+](=O)[O-])cc3)C1(O)c1ccccc1C2=O (stereo unspecified)	> 100 µM	> 100	> 100 µM	> 100 µM	> 100 µM	> 100 µM		> 100 µM	> 100 µM	> 100									
C=CC1[C@H]2COC(C)(C)O[C@@H]2CC(=O)C1(C)C (stereo partly specified)	> 100 µM	> 100		> 100 µM		> 100 µM	> 100	> 100 µM	> 100 µM	> 100									
CCCCc1c2c(nc3c1CCc1cc4cc5c(nc4nc1-3)-c1nc3c(c(CCCC)c1CC5)CCCC3)CCCC2	> 100 µM	> 100		> 100 µM	> 100 µM	> 100 µM		> 100 µM	> 100 µM	> 100									
CC[C@@]1(O)C[C@H](OC2CC(N(C)C)C(OC3CC(O)C(OC4CCC(=O)C(C)O4)C(C)O3)C(C)O2)c2c(cc3c(c2O)C(=O)c2c(O)cccc2C3=O)[C@H]1C(=O)OC (stereo partly specified)	0.25 µM and 0.476 µM	0.579	0.6 µM and 0.169 µM	1.98 µM and 2.21 µM	0.261 µM and 0.743 µM	0.371 µM and 2.79 µM	0.118	0.956 µM and 0.404 µM	0.139 µM and 0.504 µM						0.00904 µM and 0.00447 µM				
CS(=O)(=O)OCCN1CCN(C(=O)c2cccc3c(Nc4ccc(S(=O)(=O)N=C(N)N)cc4)c4ccccc4nc23)CC1	> 100 µM	> 100	> 100 µM	> 100 µM	> 100 µM	> 100 µM		> 100 µM	> 100 µM										
CCOC(=O)C1=C(C(=O)c2ccc(C)cc2)C(c2cccc([N+](=O)[O-])c2)C(C(=O)c2ccc(C)cc2)=C(C(=O)OCC)N1	32.9 µM	28.3	28.8 µM	25.9 µM		46.1 µM	> 100	45 µM	41 µM	31.4									
Cc1ccc(-c2cc(-c3ccco3)c(C#N)c(=O)[nH]2)cc1	> 100 µM	> 100	> 100 µM	> 100 µM	> 100 µM	> 100 µM		> 100 µM	> 100 µM	> 100									
Cn1nc(-c2ccccc2)c(C(=O)/C=C/c2ccc(F)cc2)c(N2CCCCC2)c1=O	18 µM	27.7		55.4 µM	6.98 µM	37 µM		75.6 µM		15.4									
CCCCC1CC(c2cccc([N+](=O)[O-])c2)=NO1 (stereo unspecified)	> 100 µM	> 100	> 100 µM	> 100 µM	> 100 µM	> 100 µM	> 100	> 100 µM	> 100 µM										

From PubChem BioAssay (NCI)
